Reference: article PMC10244169, “Psychedelics promote plasticity by directly binding to BDNF receptor TrkB” (Nature Neuroscience, 2023)
Structures can show the parent of a compound that is named as a salt. Where two headings read alike, the source gives them in different places.

Tests used:
TrkB [1] = target: T1, TrkB (Rattus norvegicus, UniProt Q63604); assay: biochemical; format: binding; conditions: for Bmax (specific binding with Hill slope, best-fit) / h (Hill slope, best-fit): ext fig 1f, competition curve, n=5; for displacement of ^3H-LSD from TrkB: 1 nM to 10 µM of drug
T1 construct: expressed in transfected cells; host or cells: HEK293T
T1 sequence (Q63604 32-821): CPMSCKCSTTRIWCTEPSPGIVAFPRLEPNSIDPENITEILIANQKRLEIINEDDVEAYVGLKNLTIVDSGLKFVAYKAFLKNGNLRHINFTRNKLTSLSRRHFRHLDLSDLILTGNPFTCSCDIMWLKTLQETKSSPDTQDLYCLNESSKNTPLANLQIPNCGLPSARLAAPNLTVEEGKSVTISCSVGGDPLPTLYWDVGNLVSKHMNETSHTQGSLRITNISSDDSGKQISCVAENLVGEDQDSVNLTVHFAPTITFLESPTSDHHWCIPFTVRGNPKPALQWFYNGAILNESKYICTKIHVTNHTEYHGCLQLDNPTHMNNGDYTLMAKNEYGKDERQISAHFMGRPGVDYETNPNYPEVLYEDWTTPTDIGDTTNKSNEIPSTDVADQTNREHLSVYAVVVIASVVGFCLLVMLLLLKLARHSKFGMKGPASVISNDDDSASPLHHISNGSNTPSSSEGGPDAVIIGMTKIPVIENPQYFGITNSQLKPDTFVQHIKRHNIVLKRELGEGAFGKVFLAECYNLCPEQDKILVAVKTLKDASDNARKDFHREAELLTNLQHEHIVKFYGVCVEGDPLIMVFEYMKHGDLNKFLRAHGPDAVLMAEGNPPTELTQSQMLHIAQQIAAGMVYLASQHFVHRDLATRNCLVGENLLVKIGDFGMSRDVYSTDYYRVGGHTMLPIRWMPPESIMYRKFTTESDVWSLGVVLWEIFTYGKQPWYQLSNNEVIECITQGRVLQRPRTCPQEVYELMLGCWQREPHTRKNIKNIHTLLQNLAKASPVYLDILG

TrkB (WT) dimerization = target: T2, TrkB (WT) dimerization (Rattus norvegicus, UniProt Q63604); assay: Split-luciferase PCA of TrkB dimerization in N2a cells; format: cell-based; conditions: for Group mean (Mean 2; Vehicle:Vehicle = 100), fig 4e: n=48
T2 construct: expressed in transfected cells; host or cells: N2a
T2 sequence (Q63604 32-821): as above
T2 sequence (Q63604 32-821): as above
Experimental: Ketanserin, M100907 and TRKB.FC were added to the media 10 min before treatment. The PCA method was performed as previously described[11],[75],[76]. Split humanized Gaussia princeps luciferase (hGLuc) was cloned on the C-terminus of the reporter proteins TrkB (WT and Y433F) and lipid raft Fyn. If the reporter proteins that carry complementary halves of the luciferase interact, the enzyme can refold in its functional conformation and, upon addition of its substrate, produce luminescence proportionally to the amount of reporter proteins interacting at a given time. N2a cells were seeded in 96-well plates with opaque walls and transparent bottom (PerkinElmer, ViewPlate 96). Cells were transfected with Lipofectamine 2000 according to the manufacturer’s instructions 24 h post-plating with the PCA pair plasmids: phGLuc(1C)-TrkB(WT) or the mutant phGLuc(1C)-TrkB(Y433F) and phGLuc(2 C)-TrkB(WT) for the dimerization experiments; phGLuc(1C)-lipid raft Fyn and phGLuc(2C)-TrkB(WT) or phGLuc(2C)-TrkB(Y433F) for the lipid raft localization experiments. Forty-eight hours post transfection, cells were treated (40 min, 37 °C) in phenol red-free Dulbecco’s modified Eagle medium without serum. […] The PCA signal was detected with the substrate for the luciferase, native coelenterazine, which was injected into each well directly in the plate reader at a final concentration of […].

[2] = tested on: spine density of neuronal cultures; assay: Spinogenesis in mature neuronal cultures (WT and Y433F^+/−); format: cell-based, mouse; parameters: 6d: Mean (spinogenesis, spine density) / 6e: Mean (spinogenesis, spine density): unit not given here
Experimental: Spinogenesis experiments were performed similarly to previous studies[12],[13] with modifications. […] In a separate set of experiments to study the effects of extracellular BDNF and 5-HT2A activation, cultures were also pretreated for 10 min with TrkB.FC (200 ng ml^−1) or M100907 (100 nM), respectively. TrkB.FC and M100907 remained in the medium for the rest of the experiment. Twenty-four hours later, coverslips were fixed with 4% PFA, washed with PBS, incubated with blocking buffer (0.1% Triton X-100, 0.05% Tween-20, 10% normal donkey serum, 1% BSA and 0.1% gelatin in PBS) for 1 h at room temperature and then overnight with rabbit anti-MAP2 (Invitrogen, PA5-17646; 1:100) primary antibody at 4 °C. After washing with PBS, coverslips were incubated with CF568-conjugated donkey anti-rabbit (Biotium, 20098; 1:500) for 1 h at room temperature. Another round of PBS washes was followed by incubation with Alexa Fluor 647-conjugated phalloidin (Invitrogen, A22287; 1:40) overnight at 4 °C. Next, coverslips were briefly washed in phosphate buffer (PB) and mounted on slides with ProLong Glass Antifade Mountant (Invitrogen, P36982). We used a Zeiss LSM 880 confocal microscope with an AiryScan GaAsP detector equipped with a PlanApochromat 63×/1.4 NA objective. We used the BP 495–550 + LP 570 AiryScan filter and Zen Black in super-resolution mode for image acquisition. Pinhole size was adapted accordingly, and frame size was set to optimal. Sensors were set to continuous adjustment across the imaging sessions to ensure optimal sensor alignment and signal detection. Raw data were processed into AiryScan images with the autofilter mode on using Zen Blue. Finally, image analysis was performed in ImageJ by experimenters blinded for treatment and genotype. Spines were quantified in 15-µm-long dendrite sections.

[3] = tested on: dendritic arbor complexity of neuronal cultures; assay: Dendritogenesis (Sholl analysis) in neuronal cultures (WT and Y433F^+/−); format: cell-based, mouse; conditions: for Sholl analysis, Mean at distance from soma: fig 6j
Experimental: In a separate set of experiments to study the effects of extracellular BDNF and 5-HT2A activation, cultures were also pretreated for 10 min with TrkB.FC (200 ng ml^−1) or M100907 (100 nM), respectively. Similar to treatment with the psychedelics, TrkB.FC and M100907 pretreatments were administered in cumulative doses and remained in the medium for the rest of the experiment. At DIV7, neurons were pre-incubated for 1 h with […] MgCl2 to prevent excitotoxicity, then neurons were transfected for the heterologous expression of mCherry. To minimize any possible interference of the transfection protocol upon the drug effect, transfection was done in the morning while treatment with psychedelics was always added in the evening. Twenty-four hours after transfection, neurons were fixed with 4% PFA for 20 min at room temperature, washed in PBS-T, blocked for 30 min with 3% BSA in PBS-T and incubated with chicken anti-MAP2 (Abcam, ab5392; 1:5,000, 1 h, room temperature). Then, coverslips were washed in PBS-T and incubated with Alexa Fluor 647-conjugated antibody goat anti-chicken (Invitrogen, A-21449; 1:1,000, 1 h, room temperature). Next, coverslips were washed in PBS-T and MilliQ water, and mounted in Dako fluorescence mounting medium (Agilent, S302380-2). Ten optical sections with a Z-step of 1.3 μm were acquired using a Zeiss LSM 710 confocal microscope with a LCI Plan/Neofluar 25×/0.8 lmm Korr DIC M27 objective. In the mCherry channel, the center of the soma was manually assigned and the number of dendritic intersections at fixed distances (every 5 μm) from the soma was automatically counted using the Sholl analysis plugin of ImageJ.

TrkB [4] = target: T1, TrkB; assay: Biotin-labeled BDNF binding to immunoprecipitated TrkB; conditions: ext fig 1e, n=4
Experimental: Binding assays were performed as previously described with minor modifications. […] Samples from mouse embryo (E18) brains were also lysed, vortexed, sonicated and centrifuged for binding assays. Plates were then washed with PBS. […] For the competition binding assays with biotinylated R,R-HNK, the amino-biotinylation of R,R-HNK was performed using a commercial kit (Thermo Scientific, EZ-Link NHS-PEG4 Biotinylation Kit, 21455) and the reaction monitored by MS. A mixture of biotinylated R,R-HNK (10 µM) and unlabeled compounds (1 pM to 10 µM) in PBS was added to the 96-well plates containing the immunoprecipitated TrkB and incubated for 1 h at room temperature. […] Luminescence was determined via streptavidin conjugated with horseradish peroxidase (HRP; Thermo Fisher Scientific, 21126; 1:5,000, 1 h at room temperature) in reaction with the Pierce ECL substrate (Thermo Fisher Scientific, 32106). Luminescence from blank wells that contained all reagents but the sample lysates was used to determine nonspecific binding. To obtain the binding curves, results from binding assays were fitted to the equation of specific binding with Hill slope from GraphPad Prism 9.2. To calculate koff values, results were fitted to the equation of dissociation of one phase exponential decay from GraphPad Prism 9.2.

eGFP-tagged TrkB (WT) = target: T3, eGFP-tagged TrkB (WT) (Rattus norvegicus, UniProt Q63604); assay: Microscale thermophoresis (MST) in HEK293T lysates; format: binding; conditions: native (WT) TrkB
T3 construct: expressed in transfected cells; host or cells: HEK293T
T3 sequence (Q63604 32-821): as above
Experimental: MST experiments were performed using the Monolith NT.115 (Blue/Red) instrument (NanoTemper Technologies). Lysates of HEK293T cells expressing GFP-tagged TrkB (WT, Y433F, TrkA.TM) were lysed, vortexed, sonicated and centrifuged 24 h after transient transfection and used as a source of fluorescently labeled TrkB, similarly to previously described protocols[11],[45]–[47]. The advantage of this approach is the possibility of studying the proteins in close-to-native conditions. However, the presence of other proteins, lipids, nucleic acids and other components of crude cell lysates can alter the diffusion of biomolecules and therefore binding affinities. High viscosity and background signal typically results in the affinity values being orders of magnitude […] than those of more traditional binding assays. […] The measurements were performed in premium coated capillaries (NanoTemper Technologies, MO-K025) using a LED source with 470 nm and 50% infrared-laser power at 25 °C. Analysis was performed using MO Affinity Analysis 2.3. Results were fitted to specific binding with Hill slope equations from GraphPad Prism 9.2.

[5] = treatment alone (other factor Vehicle)
[6] = TrkB.FC 200 ng ml^−1 or M100907 100 nM

`N[C@@]1(c2ccccc2Cl)CCC[C@@H](O)C1=O` [R,R-HNK, 2R,6R-hydroxynorketamine] was tested, and the Ki (TrkB [1]; displacement of ^3H-LSD, read-out: Ki) was 166 ± 21.1 nM, the “Bmax (specific binding with Hill slope, best-fit)” value (TrkB [1]) was 107.6 and the “h (Hill slope, best-fit)” value (TrkB [1]) was -0.8819.

In the case of `CN(C)CCCN1c2ccccc2Sc2ccc(Cl)cc21` [chlorpromazine], the “displacement of ^3H-LSD from TrkB” value (TrkB [1]) is reported as “fail to displace ^3H-LSD”, the “Fit status, one phase exponential decay” value (TrkB [1]; ext fig 1h) is reported as “Interrupted” and the “K (one phase exponential decay, best-fit)” value (TrkB [1]; ext fig 1h) is reported as 6.169. For the same molecule, the “Plateau (one phase exponential decay, best-fit)” value (TrkB [1]; ext fig 1h) was 142318 and the “Span (one phase exponential decay, best-fit)” value (TrkB [1]; ext fig 1h) was -142224.

`CN1C(=O)CN=C(c2ccccc2)c2cc(Cl)ccc21` [diazepam] was tested, and the “displacement of ^3H-LSD from TrkB” value (TrkB [1]) was “fail to displace ^3H-LSD” and the “Fit status, one phase exponential decay” value (TrkB [1]; ext fig 1h) was “Not converged”.

`CNC1(c2ccccc2Cl)CCCCC1=O` (centres unmarked) [ketamine, Ketamine hydrochloride] was tested, and the Ki (TrkB [1]) was 20800 ± 8860 nM, the “Bmax (specific binding with Hill slope, best-fit)” value (TrkB [1]) was 98.59 and the “h (Hill slope, best-fit)” value (TrkB [1]) was -0.5468.

For “TrkB.FC: TrkB receptor bodies that sequester extracellular BDNF”, the “effect of pretreatment on LSD- and BDNF-induced TrkB dimerization” value (TrkB (WT) dimerization; ketanserin 100 nM, M100907 100 nM or TrkB.FC 200 ng ml^−1, 10 min before) was “prevents the effects of LSD and BDNF on TrkB dimerization”, the “Group mean (Mean 2; Vehicle:Vehicle = 100), fig 4e” value (from here on “Group mean … fig 4e”) (TrkB (WT) dimerization; [5]) was 100 and the “effect of pretreatment on spinogenic effect of LSD” value [2, 6] was “prevented the spinogenic effect of LSD”. The “6e: Mean Diff. (Vehicle:Vehicle vs. treatment), Bonferroni's multiple comparisons test” value ([2]; substance alone (with vehicle)) was -0.45, the “6e: Mean (spinogenesis, spine density)” value ([2]; substance alone (with vehicle), Vehicle:Vehicle mean 7.05) was 7.5 and the “effect of pretreatment on LSD effects on dendritogenesis” value [3, 6] was “prevented LSD effects on dendritogenesis”. For the same molecule, the “dendritic arbor complexity, Mean Diff. (Vehicle:vehicle vs. group)” value ([3]; fig 6i, Bonferroni's multiple comparisons test) was 9.033, the “dendritic arbor complexity, group mean (Mean 2)” value ([3]; fig 6i, treatment:pretreatment groups, Vehicle:vehicle mean 69.72) was 60.69 and the “Sholl analysis, Mean at distance from soma” value (from here on “Sholl analysis, Mean”) ([3]; distance from soma 10 µm) was 6.276. For the same molecule, the “Sholl analysis, Mean” value ([3]; distance from soma 15 µm) was 6.586, the “Sholl analysis, Mean” value ([3]; distance from soma 20 µm) was 5.414 and the “Sholl analysis, Mean” value ([3]; distance from soma 25 µm) was 4.966. The “Sholl analysis, Mean” value ([3]; distance from soma 30 µm) was 4.621, the “Sholl analysis, Mean” value ([3]; distance from soma 35 µm) was 3.655 and the “Sholl analysis, Mean” value ([3]; distance from soma 40 µm) was 3.414. For the same molecule, the “Sholl analysis, Mean” value ([3]; distance from soma 45 µm) was 2.655, the “Sholl analysis, Mean” value ([3]; distance from soma 50 µm) was 2.724 and the “Sholl analysis, Mean” value ([3]; distance from soma 55 µm) was 2.759. For the same molecule, the “Sholl analysis, Mean” value ([3]; distance from soma 60 µm) was 2.2069, the “Sholl analysis, Mean” value ([3]; distance from soma 65 µm) was 2.241 and the “Sholl analysis, Mean” value ([3]; distance from soma 70 µm) was 2.172. For the same molecule, the “Sholl analysis, Mean” value ([3]; distance from soma 75 µm) was 1.897, the “Sholl analysis, Mean” value ([3]; distance from soma 80 µm) was 1.862 and the “Sholl analysis, Mean” value ([3]; distance from soma 85 µm) was 2.034. The “Sholl analysis, Mean” value ([3]; distance from soma 90 µm) was 1.931, the “Sholl analysis, Mean” value ([3]; distance from soma 95 µm) was 1.621 and the “Sholl analysis, Mean” value ([3]; distance from soma 100 µm) was 1.655.

B1: BDNF: Brain-derived neurotrophic factor (protein, UniProt P23560 19-247, looked up)
Neurotrophic factor BDNF …: APMKEANIRGQGGLAYPGVRTHGTLESVNGPKAGSRGLTSLADTFEHVIEELLDEDQKVRPNEENNKDADLYTSRVMLSSQVPLEPPLLFLLEEYKNYLDAANMSMRVRRHSDPARRGELSVCDSISEWVTAADKKTAVDMSGGTVTVLEKVPVSKGQLKQYFYETKCNPMGYTKEGCRGIDKRHWNSQCRTTQSYVRALTMDSKKRIGWRFIRIDTSCVCTLTIKRGR
In the case of B1, the “Bmax (specific binding with Hill slope, best-fit)” value (TrkB [4]) is reported as 7.546, the “h (Hill slope, best-fit)” value (TrkB [4]) is reported as 0.8134 and the Kd (TrkB [4]; read-out: Kd (specific binding with Hill slope, best-fit)) is reported as 1220 nM. For the same molecule, the “Group mean (Mean 2; Control:Vehicle = 100), fig 4f” value (TrkB (WT) dimerization; BDNF 0.1ng/ml, Control (no LSD), n=8) was 147.4, the “Group mean … fig 4e” value (TrkB (WT) dimerization; [5]) was 144.1 and the “Group mean … fig 4e” value (TrkB (WT) dimerization; with TrkB.FC) was 103. The “binding by MST” value (eGFP-tagged TrkB (WT)) was “induces a shift in fluorescence”.
